Molecular target: human adenosine A2a receptor (Homo sapiens (Human), UniProt P29274)
Assay: A2a receptor binding affinity, [3H]-NECA radioligand binding test
Details: [3H]-NECA 37 nM; membrane from HEK-293 cells transfected with human adenosine A2a receptor
Summary of the method: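 IC50 values (μM) come from displacement of [3H]-NECA, used at 37 nM final, on human A2a receptor membranes from transfected HEK-293 cells. Incubation lasted one hour at room temperature in Tris/MgCl2/EDTA buffer, pH 7.4; filter-bound radioactivity was counted by scintillation.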

Sequence of human adenosine A2a receptor (P29274 whole entry): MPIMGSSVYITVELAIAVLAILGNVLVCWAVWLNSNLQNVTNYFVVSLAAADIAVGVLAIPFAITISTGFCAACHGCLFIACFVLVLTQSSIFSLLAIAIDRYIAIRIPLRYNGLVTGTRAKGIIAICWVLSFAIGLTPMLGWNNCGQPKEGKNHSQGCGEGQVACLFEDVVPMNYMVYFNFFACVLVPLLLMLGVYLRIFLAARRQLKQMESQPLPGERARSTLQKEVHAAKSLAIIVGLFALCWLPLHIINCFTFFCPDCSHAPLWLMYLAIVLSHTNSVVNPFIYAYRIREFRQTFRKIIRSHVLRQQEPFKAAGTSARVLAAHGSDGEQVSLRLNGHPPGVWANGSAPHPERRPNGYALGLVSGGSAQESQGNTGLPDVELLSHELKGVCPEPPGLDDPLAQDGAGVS

Point of comparison: CCCCN1CCN(C(=O)[C@H](Cc2ccccc2)Nc2nc(N)n3nc(-c4ccco4)nc3n2)CC1 [Example 191, (S)-2-((7-amino-2-(furan-2-yl)-[1,2,4]triazolo[1,5-a][1,3,5]triazin-5-yl)amino)-1-(4-butylpiperazin-1-yl)-3-phenylpropan-1-one], IC50 6 nM. Against it:
- Nc1nc(N2CCC[C@H]2C(=O)N2CCN(CC3(F)CCOCC3)CC2)nc2nc(-c3ccco3)nn12 [Example 389, (S)-(1-(7-amino-2-(furan-2-yl)-[1,2,4]triazolo[1,5-a][1,3,5]triazin-5-yl)pyrrolidin-2-yl)(4-((4-fluorotetrahydro-2H-pyran-4-yl)methyl)piperazin-1-yl)methanone] — within 1.5-fold, 7 nM
- Nc1nc(N2CCC[C@H]2C(=O)N2CCN(CC3(C(F)(F)F)CCC3)CC2)nc2nc(-c3ccco3)nn12 [Example 284, (S)-(1-(7-amino-2-(furan-2-yl)-[1,2,4]triazolo[1,5-a][1,3,5]triazin-5-yl)pyrrolidin-2-yl)(4-((1-(trifluoromethyl)cyclobutyl)methyl)piperazin-1-yl)methanone] — within 1.5-fold, 5 nM
- Nc1nc(N[C@H](C(=O)N2CCN(Cc3ccc(F)cc3F)CC2)c2ccccc2)nc2nc(-c3ccco3)nn12 [Example 14, (S)-2-((7-amino-2-(furan-2-yl)-[1,2,4]triazolo[1,5-a][1,3,5]triazin-5-yl)amino)-1-(4-(2,4-difluorobenzyl)piperazin-1-yl)-2-phenylethan-1-one] — 16-fold lower, 0.368 nM
- Cc1ccc(-c2nc3nc(N4CC[C@H]4C(=O)N4CCN(c5ccc(F)cc5F)CC4)nc(N)n3n2)o1 [Example 209, (S)-(1-(7-amino-2-(5-methylfuran-2-yl)-[1,2,4]triazolo[1,5-a][1,3,5]triazin-5-yl)azetidin-2-yl)(4-(2,4-difluorophenyl)piperazin-1-yl)methanone] — 6-fold lower, 1 nM
- CC(C)[C@H](Nc1nc(N)n2nc(-c3ccco3)nc2n1)C(=O)N1CCN(c2ccc(F)cc2F)CC1 [Example 10, (S)-2-((7-amino-2-(furan-2-yl)-[1,2,4]triazolo[1,5-a][1,3,5]triazin-5-yl)amino)-1-(4-(2,4-difluorophenyl)piperazin-1-yl)-3-methylbutan-1-one] — 17-fold lower, 0.357 nM
- Nc1nc(N2CCC[C@H]2C(=O)N2CCN(C3CC4CCC3C4)CC2)nc2nc(-c3ccco3)nn12 (stereo partly drawn) [Example 156, ((S)-1-(7-amino-2-(furan-2-yl)-[1,2,4]triazolo[1,5-a][1,3,5]triazin-5-yl)pyrrolidin-2-yl)(4-(bicyclo[2.2.1]heptan-2-yl)piperazin-1-yl)methanone] — 2-fold higher, 12 nM
- Nc1nc(N2CCC[C@H]2C(=O)N2CCN(C(=O)c3ccc(C(F)(F)F)cn3)CC2)nc2nc(-c3ccco3)nn12 [Example 83] — 2.7-fold higher, 16 nM
- Nc1nc(N2CCC[C@H]2C(=O)N2CCC3(CC2)CN(CC(F)(F)F)C3)nc2nc(-c3ccco3)nn12 [Example 362, (S)-(1-(7-amino-2-(furan-2-yl)-[1,2,4]triazolo[1,5-a][1,3,5]triazin-5-yl)pyrrolidin-2-yl)(2-(2,2,2-trifluoroethyl)-2,7-diazaspiro[3.5]nonan-7-yl)methanone] — 5-fold higher, 30 nM
- Cc1ccc(-c2nc3nc(N4CC[C@H]4C(=O)N4CCN(C5CCCCC5)CC4)nc(N)n3n2)o1 [Example 219, (S)-(1-(7-amino-2-(5-methylfuran-2-yl)-[1,2,4]triazolo[1,5-a][1,3,5]triazin-5-yl)azetidin-2-yl)(4-cyclohexylpiperazin-1-yl)methanone] — 2-fold lower, 3 nM
- Nc1nc(N[C@H](C(=O)N2CCN(CC(F)(F)F)CC2)C2CCCC2)nc2nc(-c3ccco3)nn12 [Example 217, (S)-2-((7-amino-2-(furan-2-yl)-[1,2,4]triazolo[1,5-a][1,3,5]triazin-5-yl)amino)-2-cyclopentyl-1-(4-(2,2,2-trifluoroethyl)piperazin-1-yl)ethan-1-one] — 2-fold lower, 3 nM
- CCCCN1CCN(C(=O)[C@@H](Nc2nc(N)n3nc(-c4ccco4)nc3n2)C2CCC2)CC1 [Example 177, (S)-2-((7-amino-2-(furan-2-yl)-[1,2,4]triazolo[1,5-a][1,3,5]triazin-5-yl)amino)-1-(4-butylpiperazin-1-yl)-2-cyclobutylethan-1-one] — 3.3-fold higher, 20 nM
- Nc1nc(N2CCC[C@H]2C(=O)N2CCC(C(=O)Nc3ccccn3)CC2)nc2nc(-c3ccco3)nn12 [Example 79, 1-((7-amino-2-(furan-2-yl)-[1,2,4]triazolo[1,5-a][1,3,5]triazin-5-yl)-L-prolyl)-N-(pyridin-2-yl)piperidin-4-carboxamide] — 1.8-fold higher, 11 nM
- COC[C@H](Nc1nc(N)n2nc(-c3ccco3)nc2n1)C(=O)N1CCN(CC(F)(F)F)CC1 [Example 306, (S)-2-((7-amino-2-(furan-2-yl)-[1,2,4]triazolo[1,5-a][1,3,5]triazin-5-yl)amino)-3-methoxy-1-(4-(2,2,2-trifluoroethyl)piperazin-1-yl)propan-1-one] — 5-fold higher, 30 nM
- Nc1nc(N2CCC[C@H]2C(=O)N2CCN(C3COC3)CC2)nc2nc(-c3ccco3)nn12 [Example 403, (S)-(1-(7-amino-2-(furan-2-yl)-[1,2,4]triazolo[1,5-a][1,3,5]triazin-5-yl)pyrrolidin-2-yl)(4-(oxetan-3-yl)piperazin-1-yl)methanone] — 1.5-fold higher, 9 nM
- CCCCCCN1CCN(C(=O)[C@@H]2CCCN2c2nc(N)n3nc(-c4ccco4)nc3n2)CC1 [Example 301, (S)-(1-(7-amino-2-(furan-2-yl)-[1,2,4]triazolo[1,5-a][1,3,5]triazin-5-yl)pyrrolidin-2-yl)(4-hexylpiperazin-1-yl)methanone] — 2-fold lower, 3 nM
- CCC(O)(CC)CN1CCN(C(=O)[C@@H](Nc2nc(N)n3nc(-c4ccco4)nc3n2)C2CCCCC2)CC1 [Example 185, (S)-2-((7-amino-2-(furan-2-yl)-[1,2,4]triazolo[1,5-a][1,3,5]triazin-5-yl)amino)-2-cyclohexyl-1-(4-(2-ethyl-2-hydroxybutyl)piperazin-1-yl)ethan-1-one] — 2-fold lower, 3 nM
- C[C@H]1CN(C(=O)Nc2ccccc2)CCN1C(=O)[C@@H]1CCCN1c1nc(N)n2nc(-c3ccco3)nc2n1 [Example 181, (S)-4-((7-amino-2-(furan-2-yl)-[1,2,4]triazolo [1,5-a][1,3,5]triazine-5-yl)-L-prolyl)-3-methyl-N-phenylpiperazin-1-carboxamide] — 1.8-fold higher, 11 nM
- Nc1nc(N2CCC[C@H]2C(=O)N2CCC(C(=O)N3CCCCC3)CC2)nc2nc(-c3ccco3)nn12 [Example 142, (1-((7-amino-2-(furan-2-yl)-[1,2,4]triazolo[1,5-a][1,3,5]triazin-5-yl)-L-prolyl)piperidin-4-yl)(piperidin-1-yl)methanone] — 2.2-fold higher, 13 nM
- Nc1nc(N2CCC[C@H]2C(=O)N2CCN(Cc3ccc(F)cc3F)CC2)nc2oc(-c3ccco3)nc12 [Example 41, (S)-(1-(7-amino-2-(furan-2-yl)oxazolo[5,4-d]pyrimidin-5-yl)pyrrolidin-2-yl)(4-(2,4-difluorobenzyl)piperazin-1-yl)methanone] — 2.2-fold higher, 13 nM
- CC(C)(F)CN1CCC(C2CCN(C(=O)[C@@H]3CCCN3c3cc4nc(-c5ccco5)nn4c(N)n3)CC2)CC1 [Example 395, (S)-(1-(5-amino-2-(furan-2-yl)-[1,2,4]triazolo[1,5-c]pyrimidin-7-yl)pyrrolidin-2-yl)(1′-(2-fluoro-2-methylpropyl)-[4,4′-bipiperidin]-1-yl)methanone] — 3-fold higher, 18 nM
